EC50 data for 7 molecules are collected here from BindingDB's records for doi:10.1016/j.bmcl.2014.03.017 (Alcon Laboratories, 2014).

A word on the EC50: it is the concentration giving half of the maximal effect. Low values mean a more potent agent, high ones a less potent agent.

This assay in a line: Inhibition of ROCK-2 in human GTM3 cells measured up to 2 days by cell impedance assay.

With `CN(C)CC(O)CN1CCN(c2nc(-c3ccncc3)cnc2N2CCCC2)CC1` (configuration not stated), the EC50 is 1500 nM. To `Cc1n[nH]c2ccc(-c3cncc(N4CCCNCC4)n3)cc12` belongs 380 nM; to `OCCN1CCN(c2nc(-c3ccncc3)cnc2N2CCCC2)CC1` [2-(4-(6-(pyridin-4-yl)-3-(pyrrolidin-1-yl)pyrazin-2-yl)piperazin-1-yl)ethanol], 680 nM; to `c1cc2[nH]ncc2cc1-c1cncc(N2CCCNCC2)n1`, 260 nM. Regarding `CC(=O)NCC(O)CN1CCN(c2nc(-c3ccncc3)cnc2N2CCCC2)CC1` (configuration not stated), the EC50 amounted to 1700 nM. To `CC(=O)NCCCN1CCN(c2nc(-c3ccncc3)cnc2N2CCCC2)CC1` belongs 760 nM. To `c1nc(N2CCCC2)c(N2CCCNCC2)nc1-c1cc2cn[nH]c2cn1` belongs 416 nM.
